According to PMC5477230 (Nature chemical biology, 2016):
Entries after “also recorded” stand apart in the source; their conditions may differ. Where two headings read alike, the source gives them in different places. * marks the point of attachment. Cbz = O=C(OCc1ccccc1)*; CH2F = FC*

Columns and labels:
[1] = system: THP-1 macrophages; conditions: for LDH release: wild-type THP-1 cells; for blockade of Val-boroPro-induced pyroptosis: THP-1 macrophages, 50 μM, 30 min pre-treatment, 6 h
[2] = system: HT-1080 cells; test: CellTiter-Glo cell viability, HT-1080; assay type: cell-based; conditions: HT-1080, 48 h
[3] = system: CASP1 knockout THP-1 cells; test: CellTiter-Glo cell viability, CASP1 knockout THP-1; assay type: cell-based; conditions: CASP1 knockout THP-1, 48 h, compared to DMSO
[4] = system: DPP7; conditions: cited from earlier work
[5] = system: DPP8; conditions: read-out: IC50 DPP8; cited from earlier work
[6] = system: DPP8/9 knockout THP-1 cells; test: CellTiter-Glo cell viability, DPP8/9 knockout THP-1; assay type: cell-based; conditions: read-out: IC50 cell viability (CellTiter-Glo); DPP8/9 KO1 THP-1, 48 h
[7] = system: DPP4; conditions: cited from earlier work
[8] = system: J774 cells; conditions: cited from earlier work
[9] = system: DPP8/9 double knockout THP-1 cells; test: LDH cytotoxicity assay, DPP8/9 double knockout THP-1; assay type: cell-based
[10] = system: GSDMD; test: GSDMD cleavage by immunoblotting; assay type: cell-based; conditions: THP-1 cells, 24 h
[11] = system: U937 cells and monocyte-derived macrophages; conditions: 8 μM; cited from earlier work
[12] = system: RAW 264.7 cells; test: LDH cytotoxicity assay, RAW 264.7; conditions: for LDH release: RAW 264.7; for effect on cumulative Val-boroPro-induced LDH release: RAW 264.7, 24 hours; for blockade of Val-boroPro-induced pyroptosis: RAW 264.7 macrophages, 50 μM, 30 min pre-treatment, 6 h
[13] = system: control THP-1 cells; test: CellTiter-Glo cell viability, control THP-1; assay type: cell-based; conditions: read-out: IC50 cell viability (CellTiter-Glo)
[14] = system: MCF7 cells; test: CellTiter-Glo cell viability, MCF7; assay type: cell-based; conditions: MCF7, 48 h
[15] = system: Caspase-1 knockout THP-1 cells; test: LDH cytotoxicity assay, caspase-1 knockout THP-1; assay type: cell-based
[16] = system: rats; conditions: cited from earlier work
[17] = system: DPP9 knockout THP-1 cells; test: LDH cytotoxicity assay, DPP9 knockout THP-1; assay type: cell-based
[18] = system: caspase-1 knockout RAW 264.7 cells; test: Cell viability, caspase-1 knockout RAW 264.7; assay type: cell-based, mouse; conditions: for cell killing: caspase-1 knockout RAW 264.7
[19] = system: DPP9; conditions: read-out: IC50 DPP9; cited from earlier work
[20] = biological target: SCPEP1 (Homo sapiens, UniProt Q9HB40); test: EnPlex serine hydrolase selectivity profiling; assay type: biochemical; conditions: 10 μM; EnPlex and competitive ABPP
SCPEP1, sequence (Q9HB40 27-452, species assumed): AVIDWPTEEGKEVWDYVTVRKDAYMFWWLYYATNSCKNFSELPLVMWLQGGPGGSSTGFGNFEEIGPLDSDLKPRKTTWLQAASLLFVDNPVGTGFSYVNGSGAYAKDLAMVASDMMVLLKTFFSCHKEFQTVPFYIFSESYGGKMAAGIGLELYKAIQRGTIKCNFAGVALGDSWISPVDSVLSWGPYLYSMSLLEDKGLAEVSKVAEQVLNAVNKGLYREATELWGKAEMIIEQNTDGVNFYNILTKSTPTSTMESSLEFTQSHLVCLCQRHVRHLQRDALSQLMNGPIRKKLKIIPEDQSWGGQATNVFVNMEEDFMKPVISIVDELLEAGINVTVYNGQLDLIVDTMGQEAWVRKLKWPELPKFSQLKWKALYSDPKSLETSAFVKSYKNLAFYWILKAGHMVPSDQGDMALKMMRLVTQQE

[21] = system: primary human peripheral blood mononuclear cells (hPBMCs); test: LDH cytotoxicity assay, hPBMCs
[22] = system: ASC-knockout THP-1 cells; assay type: cell-based
[23] = system: primary mouse bone marrow derived macrophages (mBMDMs); test: LDH cytotoxicity assay, mBMDMs
[24] = system: GSDMD knockout THP-1 cells; test: LDH cytotoxicity assay, GSDMD knockout THP-1; assay type: cell-based
[25] = system: HL-60 cells; test: LDH cytotoxicity assay, HL-60
[26] = system: Casp1−/− knockout C57BL/6NJ mice; test: Cytokine stimulation in Casp1−/− knockout mice; assay type: in vivo; conditions: 100 μg/mouse, 6 h
[27] = system: wild-type mice; test: Cytokine stimulation in wild-type mice; assay type: in vivo; conditions: oral, Val-boroPro 100 μg/mouse, sitagliptin 1000 μg/mouse
[28] = system: THP-1 macrophages; test: IL-1β expression by immunoblotting; conditions: 10 μM
[29] = system: U937 cells; test: LDH cytotoxicity assay, U937
[30] = system: J774 cells; test: LDH cytotoxicity assay, J774

## 1G244
[1]
  LDH release: induced similar LDH release
[2]
  cell killing (CellTiter-Glo): kills
[3]
  cell death (CellTiter-Glo): killed
[4]
  inhibition of DPP7: does not inhibit
[5]
  IC50: 0.014 µM
[6]
  IC50: 21.5 µM
[7]
  inhibition of DPP4: does not inhibit
[8]
  cell death: induces cell death
[9]
  additional LDH increase: no additional LDH increase
[10]
  GSDMD cleavage: significant cleavage of GSDMD
[11]
  form of cell death induced: induced a form of cell death that appeared to be apoptosis
[12]
  LDH release: induced similar LDH release
[13]; control THP-1, 48 h
  IC50: 2.7 µM
[14]
  cell killing (CellTiter-Glo): kills
[15]
  sensitivity of cells to compound (LDH): resistant
[16]; 30 mg/kg
  toxic effects after injection: startle reflex, convulsions and cyanosis
[16]
  concentrations achieved in animals: > 10 µM
[16]; ≥60 mg/kg
  toxic effects after injection: immediate death
[17]; DPP9 knockout THP-1, Val-boroPro 2 μM, 1G244 10 μM, 24 h
  additional LDH release / cytotoxicity: induced additional LDH release
[18]
  cell killing: kills
[18]; mouse RAW 264.7 cells, 10 μM
  caspase-1-independent cell death: small amounts of caspase-1-independent cell death
[19]
  IC50: 0.053 µM

## CC(C)[C@H](N)C(=O)N1CCC[C@H]1B(O)O [Val-boroPro]
[20]
  inhibition of SCPEP1 (previously unknown target): inhibited
[21]
  LDH release: released LDH
[1]
  LDH release: induced similar LDH release
[22]
  cytotoxic response (LDH): responded equivalently
[23]
  LDH release: released LDH
[24]
  onset of induced cell death: significantly delayed
[4]; relative to DPP4, DPP8, DPP9
  inhibition of DPP7: more weakly inhibit
[7]; read-out: IC50 DPP4
  IC50: […]
[9]
  additional LDH increase: no additional LDH increase
[25]
  LDH release: released LDH
[26]
  serum CXCL1/KC increase: no increase
  serum G-CSF increase: no increase
[10]
  GSDMD cleavage: significant cleavage of GSDMD
[27]
  serum CXCL1/KC induction: dramatically induces
  serum G-CSF induction: dramatically induces
[28]
  increase of intracellular pro-IL-1β levels: ~ 2 fold
[29]
  LDH release: do not release LDH
[12]
  LDH release: released LDH; also recorded: induced similar LDH release
[15]
  sensitivity of cells to compound (LDH): resistant
[30]
  LDH release: released LDH
[17]
  additional LDH release / cytotoxicity: induce additional cytotoxicity
[18]
  cell killing: resistant

## N#C[C@@H]1C[C@@H]2C[C@@H]2N1C(=O)[C@@H](N)C12CC3CC(CC(O)(C3)C1)C2 [saxagliptin]
[13]; Homo sapiens, THP-1, 48 h
  IC50: 2.5 to 18.7 µM

## N#C[C@@H]1CCCN1C(=O)CNC12CC3CC(CC(O)(C3)C1)C2 [vildagliptin]
[13]; Homo sapiens, THP-1, 48 h
  IC50: 2.5 to 18.7 µM

## Ac-YVAD-CMK
[1]; THP-1, over 24 hours
  effect on cumulative Val-boroPro-induced LDH release: no impact
[1]
  blockade of Val-boroPro-induced pyroptosis: completely blocked
[12]
  effect on cumulative Val-boroPro-induced LDH release: no impact
  blockade of Val-boroPro-induced pyroptosis: completely blocked

## Cbz-Val-Ala-Asp-CH2F
[1]
  blockade of Val-boroPro-induced pyroptosis: completely blocked
[12]
  effect on cumulative Val-boroPro-induced LDH release: only partially reduced
  blockade of Val-boroPro-induced pyroptosis: completely blocked
